Experimental data from patent US20070021414A1, “1-'2-(4-Hydroxyphenyl)-2-hydroxyethyl!-piperidin-4-ol compounds as nmda receptor antagonists” (PFIZER, INC., priority 2003, published 2007).
Structures can show the parent of a compound that is named as a salt.

Legend:
HERG potassium channel = molecular target: T1, HERG potassium channel (Homo sapiens, UniProt Q12809); assay: Human Dofetilide Binding; details: ratio of [3H]-dofetilide binding Ki (HERG transfected HEK293S membranes) to NR2B binding Ki
T1 construct: expressed in transfected cells; host or cells: HEK293S cells (membrane homogenate)
T1 sequence (Q12809 whole entry): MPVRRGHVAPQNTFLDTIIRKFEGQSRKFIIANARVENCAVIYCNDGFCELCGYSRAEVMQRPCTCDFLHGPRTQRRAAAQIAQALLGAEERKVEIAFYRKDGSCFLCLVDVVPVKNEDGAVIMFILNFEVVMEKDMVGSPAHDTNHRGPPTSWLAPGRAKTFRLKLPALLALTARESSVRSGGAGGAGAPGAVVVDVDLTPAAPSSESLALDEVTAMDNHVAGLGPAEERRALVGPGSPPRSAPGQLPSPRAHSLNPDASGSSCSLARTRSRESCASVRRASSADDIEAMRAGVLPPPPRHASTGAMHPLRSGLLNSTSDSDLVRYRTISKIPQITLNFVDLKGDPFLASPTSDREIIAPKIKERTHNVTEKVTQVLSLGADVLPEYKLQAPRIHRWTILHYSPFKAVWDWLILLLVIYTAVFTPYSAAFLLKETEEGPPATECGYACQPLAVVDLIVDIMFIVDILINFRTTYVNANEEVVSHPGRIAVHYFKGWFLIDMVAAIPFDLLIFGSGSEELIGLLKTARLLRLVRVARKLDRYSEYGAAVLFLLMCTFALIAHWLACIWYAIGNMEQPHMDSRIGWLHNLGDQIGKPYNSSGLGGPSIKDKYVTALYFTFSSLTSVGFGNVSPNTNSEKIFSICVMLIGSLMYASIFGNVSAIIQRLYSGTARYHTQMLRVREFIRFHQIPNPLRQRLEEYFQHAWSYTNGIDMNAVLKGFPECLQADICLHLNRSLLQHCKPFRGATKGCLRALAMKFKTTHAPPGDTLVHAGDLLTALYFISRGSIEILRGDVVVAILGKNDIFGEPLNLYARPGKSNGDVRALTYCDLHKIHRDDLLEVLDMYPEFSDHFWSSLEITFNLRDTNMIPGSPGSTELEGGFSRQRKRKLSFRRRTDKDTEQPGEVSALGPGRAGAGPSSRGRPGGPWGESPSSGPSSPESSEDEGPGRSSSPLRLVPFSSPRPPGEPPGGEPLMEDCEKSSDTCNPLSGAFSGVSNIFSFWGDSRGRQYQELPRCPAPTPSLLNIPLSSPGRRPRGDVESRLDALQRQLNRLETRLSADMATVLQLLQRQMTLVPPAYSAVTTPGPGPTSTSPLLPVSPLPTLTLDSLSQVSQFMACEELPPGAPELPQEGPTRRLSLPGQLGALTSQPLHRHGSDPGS
Experimental: Human BERG transfected HEK293S cells were prepared and grown in-house. The collected cells were suspended in 50 mM Tris-HCl (pH 7.4 at 4° C.) and homogenized using a hand held Polytron PT 1200 disruptor set at full power for 20 sec on ice. The homogenates were centrifuged at 48,000×g at 4° C. for 20 min. The pellets were then resuspended, homogenized, and centrifuged once more in the same manner. The final pellets were resuspended in an appropriate volume of 50 mM Tris-HCl, 10 mM KCl, 1 mM MgCl2 (pH 7.4 at 4° C.), homogenized, aliquoted and stored at −80° C. until use. An aliquot of membrane fractions was used for protein concentration determination using BCA protein assay kit (PIERCE) and ARVOsx plate reader (Wallac).
Binding assays were conducted in a total volume of 200 μl in 96-well plates. Twenty μl of test compounds were incubated with 20 μl of [^3H]-dofetilide (Amersham, final 5 nM) and 160 μl of membrane homogenate (25 μg protein) for 60 minutes at room temperature. Nonspecific binding was determined by 10 μM dofetilide at the final concentration. Incubation was terminated by rapid vacuum filtration over 0.5% presoaked GF/B Betaplate filter using Skatron cell harvester with 50 mM Tris-HCl, 10 mM KCl, 1 mM MgCl2, pH 7.4 at 4° C. The filters were dried, put into sample bags and filled with Betaplate Scint. Radioactivity bound to filter was counted with Wallac Betaplate counter.

Compound Oc1ccc(C(O)CN2CCC(O)(c3cccc(F)c3)CC2)cc1 (stereo not drawn) has a melting point of 154.2 °C.
COc1ccc(C2(O)CCN(CC(O)c3ccc(O)cc3)CC2)cn1 (stereo not drawn) gave a melting point of 198.8 °C.
With COCc1ccc(C2(O)CCN(CC(O)c3ccc(O)cc3)CC2)cc1 (stereo not drawn) the melting point was 169.6 °C.
In the case of COCc1ccc(C2(O)CCN(CC(O)c3ccc(O)c(C)c3)CC2)cc1 (stereo not drawn), the melting point is reported as 164.4 °C.
Compound Cc1cnc(C2(O)CCN(CC(O)c3ccc(O)c(C)c3)CC2)s1 (stereo not drawn) has a melting point of 163.7 °C.
COc1ccc(C2(O)CCN(CC(O)c3cc(C)c(O)cc3C)CC2)cn1 (stereo not drawn) gave a melting point of 156.5 °C.
Work on CCOc1ccc(C2(O)CCN(CC(O)c3ccc(O)c(C)c3)CC2)cn1 (stereo not drawn) yielded a melting point of 189.3 °C.
Work on COCc1ccc(C2(O)CCN(CC(O)c3cc(C)c(O)cc3C)CC2)cc1 (stereo not drawn) yielded a melting point of 166.3 °C.
With COc1ccc(C2(O)CCN(CC(O)c3cc(C)c(O)cc3F)CC2)cn1 (stereo not drawn) the melting point was 183.6 °C.
In the case of Cc1cc(C(O)CN2CCC(O)(c3cccc(F)c3)CC2)c(F)cc1O (stereo not drawn), the melting point is reported as 161.7 °C.
In the case of COc1ccc(C2(O)CCN(CC(O)c3ccc(O)c(C)c3)CC2)nc1F (stereo not drawn), the melting point is reported as 172.3 °C.
Compound CCCOc1ccc(C2(O)CCN(CC(O)c3ccc(O)c(C)c3)CC2)cn1 (stereo not drawn) has a melting point of 187.4 °C.
With COc1ccc(C2(O)CCN(CC(O)c3ccc(O)c(Cl)c3)CC2)cn1.Cl (stereo not drawn) the melting point was 214.3 °C.
In the case of COc1ccc(C2(O)CCN(CC(O)c3ccc(O)cc3Cl)CC2)cn1 (stereo not drawn), the melting point is reported as 190.5 °C.
For Cc1cc(C(O)CN2CCC(O)(c3ccc4c(c3)COCC4)CC2)ccc1O (stereo not drawn), the melting point was 178.3 °C.
For COc1ccc(C2(O)CCN(CC(O)c3ccc(O)c(C)c3)CC2)cn1 (stereo not drawn), the melting point was 176 °C.
Oc1ccc(C(O)CN2CCC(O)(c3cccc(F)c3)CC2)c(F)c1 (stereo not drawn) showed a melting point of 186.1 °C.
Work on Oc1ccc(C(O)CN2CCC(O)(c3ccc4c(c3)COCC4)CC2)c(F)c1 (stereo not drawn) yielded a melting point of 186.1 °C.
Work on Oc1cc(F)c(C(O)CN2CCC(O)(c3cccc(F)c3)CC2)cc1F (stereo not drawn) (as salt: hydrochloride) yielded a melting point of 207 °C.
COc1ccc(C2(O)CCN(CC(O)c3cc(F)c(O)cc3F)CC2)cn1 (stereo not drawn) (as salt: hydrochloride) showed a melting point of 199.5 °C.
In the case of Cc1cc([C@H](O)[C@H](C)N2CCC(O)(c3ccc(F)cc3)CC2)ccc1O [comparative compound A], the “TI (Dofetilide Binding Ki [μM]/NR2B Binding Ki [nM]×1000)” value (HERG potassium channel) is reported as 220.
